Legend:
[1] = test system: human 1299 cells (NCI-H1299) cultured within rat decellularized biomatrices; assay: Cisplatin treatment of tissue constructs: tumor size and live cells; format: cell-based; settings: 50 μM Cisplatin from day 4 of culture
Description: A simplified, small, closed-system bioreactor was set up in an incubator for lung cell culture on the lung biomatrix (FIG. 1B). A custom-designed 500-mL glass bottle was used with three holes in the cap fitted with a female Luer thread-style panel (Cole-Parmer), one for the pulmonary artery cannula, one for the trachea cannula, and one for circulation of medium from the bottle. Medium was constantly circulated with the help of a Masterflex pump (Cole-Parmer) through a 10-foot length of silicone oxygenator tubing wrapped around a mesh of wire solenoid (Cole-Parmer). The medium was perfused through the pulmonary artery cannula into lungs at a flow rate of 6 mL/min. For controlled flow through the pulmonary artery, it was connected to a three-way stopcock (Smith Medical, Dublin, Ohio). The bottle was filled with 150 mL of complete medium or serum-free medium, which was circulated through the oxygenator tubing to prevent air bubbles. […] Treatment (Tx) with 50 μM Cisplatin was commenced at day 4 of culture, and treated tissue constructs and untreated controls were assessed and compared at days 4, 8, 11, and 14 of culture (FIGS. 11 and 12). […]

[2] = test system: human 1299 cells (NCI-H1299) cultured within rat decellularized biomatrices; assay: Ki-67 and TUNEL staining of treated and untreated lung tissue constructs; format: cell-based; settings: 50 μM Cisplatin from day 4 of culture; compared with untreated constructs (FIG. 14)
Excerpt: Lobes of same lungs were dissected at day 0 (day of seeding cancer cells onto biomatrix), day 3, day 7, and day 11 or day 14 (or both) in sterile conditions under the culture hood to see the progression of tumor growth. After lobectomy, lung tissues were placed in 70% ethanol and analyzed in the Pathology Core Laboratory at The Methodist Hospital Research Institute. Briefly, the tissues were fixed in 10% formalin overnight, processed, and embedded in paraffin. Embedded tissues were cut into […] slices and mounted on slides, and the paraffin was removed; antigen retrieval was performed with antigen unmasking solution (H-3300; Vector Laboratories, Burlingame, Calif.) in a steamer for 20 minutes. Slides were cooled for 20 minutes at room temperature, washed in PBS, and stained with hematoxylin and eosin, Movat Pentachrome (American MasterTech Scientific, Lodi, Calif.), elastin (VVG kit, Ventana Nexus, Tucson, Ariz.), and other markers following the standard protocol. Stained slides were examined by expert board-certified pathologists, and images were captured using a microscope (Olympus, Center Valley, Pa.). […] Treatment (Tx) with 50 μM Cisplatin was commenced at day 4 of culture, and treated tissue constructs and untreated controls were assessed and compared at days 4, 8, 11, and 14 of culture (FIGS. 11 and 12). […]

[3] = test system: human 1299 cells (NCI-H1299) cultured within rat decellularized biomatrices; assay: Circulating cells in perfusion fluid of treated and untreated lung tissue constructs; format: cell-based; settings: 50 μM Cisplatin from day 4 of culture, over the observed time period, untreated showed steady increase (FIG. 15)
Description: In some embodiments, the analyzing comprises determining the number of cells in the perfusion fluid used to perfuse a tissue construct as described herein. The number of cells in the perfusion fluid, also referred to as the number of circulating cells herein, can be used as an indicator for the metastatic properties of neoplastic cells cultured within the tissue construct. For example, in tissue constructs in which neoplastic cells are cultured within the interstitial space, and perfusion fluid is run through the vascular space, cells found in the perfusion fluid may stem from neoplastic cells that have migrated across the basement membrane separating the interstitial and the vascular space. Since the capability to migrate across the basement membrane and, thus, to enter into the blood stream, is a hallmark feature of metastasizing cancer cells, the ability to migrate across the basement membrane in a tissue construct is a biomarker useful for assessing metastatic capabilities of cells grown in tissue constructs provided herein. […] Treatment (Tx) with 50 μM Cisplatin was commenced at day 4 of culture, and treated tissue constructs and untreated controls were assessed and compared at days 4, 8, 11, and 14 of culture (FIGS. 11 and 12). […]

MMPs 1, 2, 7, 9, and 10 = assay: MMP secretion into perfusion fluid of treated and untreated lung tissue constructs; format: cell-based, human; settings: 50 μM Cisplatin from day 4 of culture
Excerpt: In some embodiments, the analyzing comprises an assessment of one or more molecules secreted into a perfusion fluid by the cells cultured within the tissue construct. For example, in a lung tissue construct, the analyzing may comprise detecting a protein, peptide, or nucleic acid in a perfusion fluid run through the pulmonary artery. In some embodiments, the secreted factor assessed is a secreted factor associated with cancer, or with a property of neoplastic cells, for example, with the metastatic capabilities of neoplastic cells. Secreted factors associated with cancer are known to those of skill in the art and include factors that are typically secreted by a tumor, such as growth factors and pro-angiogenic factors, as are factors associated with the metastatic capabilities of neoplastic cells. Metastasis-associated factors include, for example, matrix metalloproteases (MMPs, e.g., MMP-1, MMP-2, MMP-3, MMP-9, and MMP-10, as well as other MMPs). Tissue constructs were generated by culturing human 1299 cells, also known as NCI-H1299 or CRL-5803, a human non-small cell lung carcinoma cell line, within rat decellularized biomatrices. Treatment (Tx) with 50 μM Cisplatin was commenced at day 4 of culture, and treated tissue constructs and untreated controls were assessed and compared at days 4, 8, 11, and 14 of culture (FIGS. 11 and 12). […]

## N.N.[Cl][Pt][Cl] [Cisplatin]
[1]; compared with non-treated constructs (FIG. 13)
  percentage of live cells: dramatically decreased
[1]; compared with untreated constructs, days 4, 8, 11, 14 (FIG. 13)
  Tumor size: dramatically decreased
[2]
  Ki-67 expression: decreased in treated constructs
  TUNEL staining: widespread apoptotic processes
[3]
  number of circulating cells: gradual decrease over the observed time period after initial rapid release of the circulating cells
MMPs 1, 2, 7, 9, and 10; end of the observation period (FIG. 16)
  Levels of the assessed MMPs at the end of the observation period: no detectable levels
MMPs 1, 2, 7, 9, and 10; untreated gradually increased over time (FIG. 16)
  Levels of MMPs 1, 2, 7, 9, and 10 in perfusion fluid after start of treatment: levels of all MMPs were diminished

From US20130344490A1, “NEOPLASTIC CELLS GROWN ON DECELLULARIZED BIOMATRIX” (priority 2012, published 2013)
